Results reported in US9090701B2, “Methods of detecting oxidized calcium/calmodulin dependent protein kinase II” (University of Iowa Research Foundation, priority 2008, dated 2015).

Legend:
cardiomyocytes [1] = test: ROS detection with DHE in cardiomyocytes; assay type: cell-based, mouse; details: 100 nM
Procedure: Changes in ROS levels in cultured primary cardiac myocytes after agonist stimulation were measured using the fluorogenic probe dihydroethidium (DHE, 5 μM, Molecular Probes), as previously described (Zimmerman e.g., 2004). DHE fluorescent images were acquired using confocal microscopy (Zeiss LSM510).
In order to validate the connection between AngII and ROS in this experimental model, isolated cardiomyocytes from WT and p47^−/− mice were treated with 100 nM AngII and monitored production of ROS by Imaging DHE, a fluorescent reporter for superoxide and hydrogen peroxide (FIG. 7C). Wild-type cardiomyocytes were incubated with fura-2 AM, a cell-permeant calcium indicator to observe changes in intracellular Ca^2+ ([Ca^2+]i).

oxCaMKII = test: Western blot of blood samples for oxidized CaMKII; assay type: in vivo, mice; details: WT and MsrA−/− mice, sacrificed 6 hours later, N=1 per group
Description: In order to test whether the anti-oxCaMKII antiserum was suitable for detecting increased CaMKII oxidation in blood under disease conditions associated with enhanced oxidative stress, validated mouse models were utilized. […] (See FIG. 15). Western blot of blood samples and ImageJ analysis were used to quantify total and oxidized CaMKII. (See FIG. 15). […] Mice were exposed to cancer cells and treated with either saline or 2DG. Those mice that tailed to develop tumors after 60 days were labeled as controls. (See FIG. 16). Western blot of blood samples and ImageJ analysis were used to quantify total and oxidized CaMKII. (See FIG. 16). […] (See FIG. 16). Mice were divided into four groups based on the presence or absence of cancer and whether or not they received treatment. Western blot of blood samples and ImageJ analysis were used to quantify total and oxidized CaMKII. (See FIG. 18). Both cancer and varied treatments increase blood oxCaMKII in an additive manner.

cardiomyocytes [2] = test: Isolated cardiomyocyte TUNEL staining; assay type: cell-based, mouse; details: 100 nM, 24 hours
Procedure: Myocyte isolations from neonatal mouse or rat pups were modified from previously described methods (Mohler e.g., 2007). To generate the primary cardiomyocyte cultures, hearts were dissected from P1 animals and placed in 1 mL of Ham's F-10. Atrial tissue was removed and the ventricular chambers were rinsed to remove any remaining blood. Hearts were transferred into 1.5 mL of 0.05% Trypsin, 200 μM EDTA in Ham's F-10 medium (Mediatech). Hearts were minced into approximately 20 small pieces using forceps and small scissors and incubated in the Trypsin/EDTA medium at 37° C. Following 15 min, the heart pieces were mixed by a Pasteur pipette and incubated for an additional 15 min. A mixture of 200 μL of soybean trypsin inhibitor (2 mg/mL; Worthington) and 200 μL of collagenase (0.2 mg/mL; 1980 units/mg; Sigma) was incubated with the cells for 35-50 min at 37° C. The cell suspension was pelleted, resuspended in “Complete Medium” (40% DMEM, 40% Ham's F-10, 20% FCS), and plated on plastic dishes. Following five hours, the non-adhered cells (cardiomyocytes) were aspirated from the plate, pelleted, resuspended in Complete Medium, and plated on Mattek tissue culture plates (fibronectin-coated; Roche). Cardiomyocytes were washed with Ham's F-10 and Medium was replaced with “Defined Medium” to prevent the growth of fibroblasts. 100× Defined Medium consists of 100 μg/mL insulin, 500 μg/mL transferrin, 100 nM LiCl, 100 nM NaSeO4, and 10 nM thyroxine. To ensure that pure populations of cardiomyocytes were obtained, cultures were immunolabeled with alpha-actinin Ig (cardiomyocyte-specific marker). Only cultures with >90% cardiomyocytes were used in experiments. (See FIG. 12.) Lentiviral treatments (shRNA, rescue constructs) and apoptosis inducing agents (Iso, AngII) were used for 24 hours. Cells were fixed in 4% paraformaldehyde, permeabilized in 0.1% Triton X-100 and sodium citrate, and stained using In Situ cell death detection kits, TMR Red (Roche). TUNEL stain assays were interpreted as previously described (Yang e.g., 2006). Nuclei were co-stained with DAPI. Investigators were blinded to the genetic identity and treatment of the mice in all studies.
Cardiomyocytes from mice that express an inhibitory peptide against CaMKII (AC3-I, Zhang e.g., 2005) were treated with 100 nM AngII for 24 hours in parallel with isolated cardiomyocytes from WT and p47^−/− mice. […] Activity assays for caspase-3, a downstream target enzyme in the CaMKII apoptotic signaling pathway in heart, recapitulated the results from the TUNEL assay (FIG. 7A).

For “angiotensin II (DRVYIHPF; Angiotensin-2; UniProt P01019 25-32, looked up) [AngII, oxidant stimulating agent in cardiac tissue]”, the ROS production (cardiomyocytes [1]; WT cardiomyocytes) was “significant increase in ROS production”, the “ROS production (significant increase)” value (cardiomyocytes [1]; p47−/− cardiomyocytes) was “not” and the “Oxidized CaMKII in blood” value (oxCaMKII) was “increased oxidized CaMKII”. The “Percent of TUNEL positive nuclei” value (cardiomyocytes [2]; WT cells) was “significant increase” and the “Percent of TUNEL positive nuclei” value (cardiomyocytes [2]; p47−/− or AC3-I cardiomyocytes) was “no significant effect”.
